# Source: patent US20220378739A1, “NATURAL KILLER CELL IMMUNOTHERAPY FOR THE TREATMENT OF GLIOBLASTOMA AND OTHER CANCERS” (BOARD OF REGENTS, THE UNIVERSITY OF TEXAS SYSTEM, priority 2019, published 2022)
# Legend:
# K562 targets = type: cell-based, human; conditions: NK cells alone, inhibitor 10 μM, 48 hours
# Procedure: (§1) NK cells were co-cultured for 5 hours with K562 or GSCs target cells at an optimized effector:target ratio of 5:1 together with CD107a PE-CF594 (BD Biosciences), monensin (BD GolgiStopTM) and BFA (Brefeldin A, Sigma Aldrich). NK cells were incubated without targets as the negative control and stimulated with PMA (50 ng/mL) and ionomycin ([…], Sigma Aldrich) as positive control. Cells were collected, washed and stained with surface antibodies (mentioned above), fixed/permeabilized (BD Biosciences) and stained with IFN-7 v450 and TNF-α Alexa700 (BD Biosciences) antibodies.
# (§2) NK cell cytotoxicity was assessed using chromium (siCr) release assay. Briefly, K562 or GSCs target cells were labeled with siCr (PerkinElmer Life Sciences, Boston, Mass.) at 50 μCi/5×10^5 cells for 2 hours. ^51Cr-labeled K562/GSC targets (5×105) were incubated for 4 h with serially diluted magnetically isolated NK cells in triplicate. Supernatants were then harvested and analysed for ^51Cr content.
# For studies of NK cell suppression by GSCs and human astrocytes, magnetically selected healthy NK cells were cultured in Serum-free Stem Cell Growth Medium (SCGM; CellGro/CellGenix) supplemented with 5% glutamine, 5 μM HEPES (both from GIBCO/Invitrogen), and 10% FCS (Biosera) in 96-well flat-bottomed plates (Nunc) at 100,000/100D11. NK cells were co-cultured either alone (positive control) or with GSCs or astrocytes at a 1:1 ratio for 48 hours at 37° C. before performing functional assays to assess NK cells cytotoxicity.
# (§3) GSCs and purified NK cells were co-cultured for 48 hours in the presence of anti-TGFβ 123 (5 μg/ml) (R&D), HLA-ABC blocking antibody (clone W 6/32, Biolegend), CD44 blocking antibody (clone IM7, Biolegend), ILT-2 (CD85J) blocking antibody (clone HP-F1, ThermoFisher), CD155 blocking antibody (clone D171, GenTex), CD112 blocking antibody (clone TX31, Biolegend), 10 μM LY2109761, 10 μM galunisertib (LY2157299), 10 μM Cilengitide (Cayman Chemical) or 1 μM MMP-2/MMP-9 inhibitor I (Millipore). Cytotoxicity assays were then performed as described above.
# GSC targets = experiment: NK cell functional assay (51Cr release; CD107a, IFN-γ, TNF-α) against GSC targets after co-culture with GSCs; type: cell-based, human; conditions: 48 hours co-culture with GSCs 1:1; inhibitor 10 μM
# Procedure: as §1, §2
# For studies of NK cell suppression by GSCs and human astrocytes, magnetically selected healthy NK cells were cultured in Serum-free Stem Cell Growth Medium (SCGM; CellGro/CellGenix) supplemented with 5% glutamine, 5 μM HEPES (both from GIBCO/Invitrogen), and 10% FCS (Biosera) in 96-well flat-bottomed plates (Nunc) at 100,000/100D11. […]
# [1] = tested on: TGF-β1 Smad⅔ signaling pathway in NK cells; experiment: Phospho-Smad⅔ assay in NK cells co-cultured with GSCs; type: cell-based, human; conditions: healthy control NK cells + GSCs; inhibitor 10 μM
# Procedure: as §3
# NK cells were stained with Live/dead-aqua and CD56 ECD (Beckman Coulter) for 20 min in the dark at RT, washed with PBS fixed for 10 min in the dark. After one wash, the cells were permeabilized (Beckman Coulter kit) and stained with p-(5465/5467)-Smad2/p-(5423/5425)/Smad3-Alexa 647 mAb Phosflow antibody (BD Biosciences) for 30 minutes at room temperature. Cells incubated with 10 ng/ml recombinant TGF-β for 45 minutes in 37° C. were used as positive control.
# [2] = literature; cited from earlier work
# [3] = tested on: TiNKs / HC-NK cells rendered dysfunctional by GSCs; experiment: Reversal of established NK cell dysfunction (TiNKs ex vivo; NK cell recovery assays); type: cell-based, human
# Procedure: FIGS. 11A-11G. […] (FIG. 11A) NK cells were incubated with or without galunisertinib (10 μM) or LY2109761 (10 μM) for 48 hours. Representative zebra plots show their CD107a, IFN-γ, and TNF-α response to K562 targets. NK cells were gated on CD3-CD56+ lymphocytes. Inset numbers are the percentages of CD107a-, IFN-γ- or TNF-α-positive NK cells within the gated NK cell population. (FIGS. 11B-11C) NK cells were cultured either alone or with GSCs in a 1:1 ratio with or without LY2109761 or galunisertib for 48 hrs. Representative zebra plots and summary box plots show their CD107, IFN-γ, and TNF-α expression response to K562 (FIG. 11B) or GSC (FIG. 11C) targets. Effector:target ratio is 5:1. NK cells were defined as CD3-CD56+ lymphocytes. Inset numbers are the percentages of CD107a-, IFN-γ- or TNF-α-positive NK cells (n=7, n=4 respectively). (FIG. 11D) TiNK cells were cultured for 24 hours in media with 5 ng/ml IL-15 with or without galunisertib. Representative zebra plots and bar graph summary show their CD107, IFN-γ, and TNF-α response to K562 targets. Effector:target ratio is 5:1. NK cells were gated on CD3-CD56+ lymphocytes. Inset numbers are the percentages of CD107a-, IFN-γ- or TNF-α-positive NK cells within the indicated regions. (n=3). (FIG. 11E) TiNK cells and paired PB-NK cells from GBM patients were cultured in the presence or absence of galunisertib for 12 hours. The bar graphs summarize the mean fluorescence intensity (MFI) for their p-Smad⅔ expression. Paired t test was performed to determine statistical significance (n=3). (FIG. 11F) Specific lysis (^51Cr release assay) of K562 targets by NK cells. After 48 hours of culture alone (blue lines) or with GSCs, healthy donor NK cells were either left with GSCs (red lines), or purified and re-suspended in media for another 48 hours (black lines). NK cells were then collected and used for ^51Cr release assay (n=4). (FIG. 11G) Specific lysis (^51Cr release assay) of K562 targets by NK cells. After 48 hours of culture alone (blue lines) or with GSCs, healthy donor NK cells were either left with GSCs ([…]) or purified and cultured in SCGM media plus 5 ng/ml IL-15 with (black lines) or without galunisertib (10 μM) (gray lines) for […]. At the end of the culture period, their cytotoxicity was tested against k562 targets by ^51Cr release assay (n=4).
# NK cells were cultured either with GSCs in a 1:1 ratio or alone for 48 hours. After 48 hours of co-incubation, NK cells were then either purified again by bead selection and resuspended in SCGM media or remained in culture with GSCs for an additional 48 hours and then used for ^51Cr release assay. In a second assay, after reselection, NK cells were cultured for another 5 days in SCGM in the presence of 5 ng/ml IL-15 with or without 10 μM galunisertib before use for ^51Cr release assay.
smiles,measurement,setting,value
Cc1cccc(-c2nn3c(c2-c2ccnc4ccc(C(N)=O)cc24)CCC3)n1 [galunisertib],"NK cell function (CD107a, IFN-γ, TNF-α response to K562), NK cells without GSCs",K562 targets,neither inhibitor affected NK cell function
same,GSC-induced NK cell dysfunction: natural cytotoxicity against GSC targets,GSC targets,preserving the natural cytotoxicity of NK cells against K562 or GSC targets
same,p-Smad⅔ expression (MFI) in NK cells co-cultured with GSCs,[1],prevented GSCs from activating the TGF-β1 Smad⅔ signaling pathway in NK cells
same,safety in glioblastoma patients,[2],has been used safely in GBM patients
same,reversal of GSC-induced dysfunction of HC-NK cells,"[3]; NK cells purified after 48 hours with GSCs, then IL-15 5 ng/ml with or without galunisertib 10 μM",did not reverse the dysfunction of HC-NK cells induced by GSCs
same,"restoration of TiNK function (specific lysis of K562; CD107, IFN-γ, TNF-α)","[3]; TiNKs cultured 24 hours, galunisertib 10 μM or IL-15 5 ng/ml",failed to inactivate the TGF-β1 Smad⅔ signaling pathway and restore NK cell dysfunction
same,TGF-β1 Smad⅔ signaling in TiNKs,"[3]; TiNKs from GBM patients cultured ex vivo, galunisertib 12 hours or IL-15",failed to inactivate the TGF-β1 Smad⅔ signaling pathway
